Experimental data: publication PMC4805251, “Novel Antimicrobial Peptides EeCentrocins 1, 2 and EeStrongylocin 2 from the Edible Sea Urchin Echinus esculentus Have 6-Br-Trp Post-Translational Modifications” (PLoS ONE, 2016)
Read-outs that look alike come from different tables or passages of the source. Ends that are not written are not given here.

Tests used:
Assay type in all cases: cell-based
[1] = system: Candida albicans (ATCC 10231)
Experimental: (§1) The synthetic peptides (see section 2.11) were also screened for antifungal activity against Candida albicans (ATCC 10231), Saccharomyces cerevisiae, Rhodotorula sp., Aureobasidium pullulans and Cladosporium sp. The antifungal assay was performed as described previously. Briefly, fungal spores were dissolved in potato dextrose broth (Difco, Lawrence, KS, USA) to a concentration of 4 × 10^5 spores/ml. The spores (50 μl) were inoculated on 96-well Nunclon^TM microtiter plates containing the synthetic peptides (50 μl) dissolved in MQ-H2O. […] MIC was defined as the lowest concentration of peptide giving no visible fungal growth. The negative (growth) control contained medium and fungal solution.
(§2) ACN-phases and SPE eluates were tested with two-fold serial dilutions ranging from 5.0 to 0.005 mg/ml (5.0, 2.5, 1.25, 0.63, 0.31, 0.16, 0.08, 0.04, 0.02, 0.01, 0.005 mg/ml) whereas HPLC-fractions were tested undiluted for antibacterial activity. Pure, native peptides and synthetic peptides (described in section 2.11) were tested for antimicrobial activity in concentrations ranging from 100 to 0.1 μM in two-fold serial dilutions (100, 50, 25, 12.5, 6.25, 3.13, 1.56, 0.78, 0.39, 0.20, 0.10 μM). Antimicrobial assays involving natural peptides (i.e. fractionated natural material) were run only once due to limited quantities, whereas all other assays were run in triplicates.

[2] = system: Aureobasidium pullulans
Experimental: as §1, §2

[3] = system: Cladosporium sp.
Experimental: as §1, §2

[4] = system: Saccharomyces cerevisiae
Experimental: as §1, §2

[5] = system: Rhodotorula sp.
Experimental: as §1, §2

[6] = system: Gram-positive and Gram-negative bacteria (tested strains); conditions: 24 h
From the text: Organic phase extract, SPE eluates and HPLC-fractions were screened for antibacterial activity against two strains of Gram-positive and two strains of Gram-negative bacteria; Corynebacterium glutamicum (ATCC 13032), Staphylococcus aureus (ATCC 9144), Pseudomonas aeruginosa #1 (ATCC 27853) and Escherichia coli #1 (ATCC 25922). For extended antimicrobial bioactivity screening, the following bacterial strains were used, three strains of Gram-positive bacteria; S. epidermidis #1 (5179-R1) kindly provided by Holger Rohde, S. epidermidis #2, RP62A (ATCC 35984) and Bacillus subtilis (ATCC 23857) in addition to the Gram-negative P. aeruginosa #2, PA 01 (ATCC 15692, DSM 19880) and E. coli #2, NR 698 (MC4100/ptD4213). […]
The test plates were incubated for 24 h at 35°C with optical density (OD595) recorded every hour using an Envision 2103 multilabel reader, controlled by the Wallac Envision manager (PerkinElmer, CT, USA). […]
ACN-phases and SPE eluates were tested with two-fold serial dilutions ranging from 5.0 to 0.005 mg/ml (5.0, 2.5, 1.25, 0.63, 0.31, 0.16, 0.08, 0.04, 0.02, 0.01, 0.005 mg/ml) whereas HPLC-fractions were tested undiluted for antibacterial activity. […] Antimicrobial assays involving natural peptides (i.e. fractionated natural material) were run only once due to limited quantities, whereas all other assays were run in triplicates.

[7] = system: P. aeruginosa #2, PA 01 (ATCC 15692, DSM 19880)
From the text: (§3) Organic phase extract, SPE eluates and HPLC-fractions were screened for antibacterial activity against two strains of Gram-positive and two strains of Gram-negative bacteria; Corynebacterium glutamicum (ATCC 13032), Staphylococcus aureus (ATCC 9144), Pseudomonas aeruginosa #1 (ATCC 27853) and Escherichia coli #1 (ATCC 25922). For extended antimicrobial bioactivity screening, the following bacterial strains were used, three strains of Gram-positive bacteria; S. epidermidis #1 (5179-R1) kindly provided by Holger Rohde, S. epidermidis #2, RP62A (ATCC 35984) and Bacillus subtilis (ATCC 23857) in addition to the Gram-negative P. aeruginosa #2, PA 01 (ATCC 15692, DSM 19880) and E. coli #2, NR 698 (MC4100/ptD4213).
(§4) Cultures stored at -80°C were smeared onto agar plates and cultured for 24 h at 35°C. One colony of each bacterial strain was transferred to 5 ml liquid Müller-Hinton (MH, Difco, Lawrence, KS, USA) medium in a glass tube and left shaking at room temperature overnight at 600 rpm. The cultures of actively growing bacteria (20 μl) were further inoculated in 5 ml MH medium and left shaking for 2 h at room temperature. The antibacterial assays were performed as previously described by. Briefly, the bacterial cultures were diluted with medium to 1.3–1.5 × 10^4 bacteria/ml final concentrations and an aliquot of 50 μl was added to each well in 96-well Nunclon^TM microtiter plates (Nagle Nunc Int., Denmark) preloaded with 50 μl test sample solutions, i.e. extracts, eluates or peptides.
(§5) The test plates were incubated for 24 h at 35°C with optical density (OD595) recorded every hour using an Envision 2103 multilabel reader, controlled by the Wallac Envision manager (PerkinElmer, CT, USA). Antibacterial activity was defined as a sample showing >90% inhibition (as measured by optical density) compared to the negative (growth) controls, consisting of bacteria and water. Oxytetracycline (20 μM) served as a positive (inhibition) control. The minimum inhibitory concentration (MIC) was defined as the lowest concentration of a sample displaying >90% inhibition.
as §2

[8] = system: Staphylococcus aureus (ATCC 9144)
From the text: as §3, §4, §5, §2

[9] = system: Pseudomonas aeruginosa #1 (ATCC 27853)
From the text: as §3, §4, §5, §2

[10] = system: Bacillus subtilis (ATCC 23857)
From the text: as §3, §4, §5, §2

[11] = system: Corynebacterium glutamicum (ATCC 13032)
From the text: as §3, §4, §5, §2

[12] = system: S. epidermidis #1 (5179-R1)
From the text: as §3, §4, §5, §2

[13] = system: E. coli #2, NR 698 (MC4100/ptD4213)
From the text: as §3, §4, §5, §2

[14] = system: Escherichia coli #1 (ATCC 25922)
From the text: as §3, §4, §5, §2

[15] = system: S. epidermidis #2, RP62A (ATCC 35984)
From the text: as §3, §4, §5, §2

## GWWRRTVDKVRNAGRKVAGFASKACGALGH [EeCentrocin 1 HC]
[1]; ATCC 10231, 24 h
  MIC C. albicans: 100 µM
[1]; parallel 1 of three
  MIC raw data C. albicans: 100 µM
[1]; parallel 2 of three
  MIC raw data C. albicans: 100 µM
[1]; parallel 3 of three
  MIC raw data C. albicans: 100 µM
[2]; 24 h
  MIC A. pullulans: 12.5 µM
[2]; parallel 1 of three
  MIC raw data A. pullulans: 12.5 µM
[2]; parallel 2 of three
  MIC raw data A. pullulans: 12.5 µM
[2]; parallel 3 of three
  MIC raw data A. pullulans: 12.5 µM
[3]; 24 h
  MIC Cladosporium sp.: >100 µM
[3]; parallel 1 of three
  MIC raw data Cladosporium sp.: >100 µM
[3]; parallel 2 of three
  MIC raw data Cladosporium sp.: >100 µM
[3]; parallel 3 of three
  MIC raw data Cladosporium sp.: >100 µM
[4]; 24 h
  MIC S. cerevisiae: 50 µM
[4]; parallel 1 of three
  MIC raw data S. cerevisiae: 50 µM
[4]; parallel 2 of three
  MIC raw data S. cerevisiae: 50 µM
[4]; parallel 3 of three
  MIC raw data S. cerevisiae: 50 µM
[5]; parallel 1 of three
  MIC raw data Rhodotorula sp.: 12.5 µM
[5]; parallel 2 of three
  MIC raw data Rhodotorula sp.: 12.5 µM
[5]; parallel 3 of three
  MIC raw data Rhodotorula sp.: 12.5 µM
[5]; potato dextrose broth, 24 h at room temperature, visual, no visible fungal growth, value of Table 2, triplicates
  MIC Rhodotorula sp.: 12.5 µM
[6]
  MIC range towards bacteria: 0.39 to 6.25 µM
[7]; ATCC 15692, 24 h
  MIC P. aeruginosa #2: 3.13 µM
[7]; parallel 1 of three
  MIC raw data P. aeruginosa #2: 3.13 µM
[7]; parallel 2 of three
  MIC raw data P. aeruginosa #2: 3.13 µM
[7]; parallel 3 of three
  MIC raw data P. aeruginosa #2: 3.13 µM
[8]; ATCC 9144, 24 h
  MIC S. aureus: 3.13 µM
[8]; parallel 1 of three
  MIC raw data S. aureus: 3.13 µM
[8]; parallel 2 of three
  MIC raw data S. aureus: 3.13 µM
[8]; parallel 3 of three
  MIC raw data S. aureus: 3.13 µM
[9]; MH medium, 24 h at 35°C, OD595, >90% inhibition, value of Table 2, native peptides run once, synthetic in triplicates
  MIC P. aeruginosa #1: 1.56 µM
[9]; parallel 1 of three
  MIC raw data P. aeruginosa #1: 1.56 µM
[9]; parallel 2 of three
  MIC raw data P. aeruginosa #1: 1.56 µM
[9]; parallel 3 of three
  MIC raw data P. aeruginosa #1: 1.56 µM
[10]; MH medium, 24 h at 35°C, OD595, lowest concentration with >90% inhibition, value of Table 2, synthetic peptides in triplicates
  MIC B. subtilis: 1.56 µM
[10]; parallel 1 of three
  MIC raw data B. subtilis: 1.56 µM
[10]; parallel 2 of three
  MIC raw data B. subtilis: 1.56 µM
[10]; parallel 3 of three
  MIC raw data B. subtilis: 0.78 µM
[11]; ATCC 13032, 24 h
  MIC C. glutamicum: 0.39 µM
[11]; parallel 1 of three
  MIC raw data C. glutamicum: 0.39 µM
[11]; parallel 2 of three
  MIC raw data C. glutamicum: 0.39 µM
[11]; parallel 3 of three
  MIC raw data C. glutamicum: 0.39 µM
[12]; #1 (5179-R1, 24 h)
  MIC S. epidermidis #1: 6.25 µM
[12]; parallel 1 of three
  MIC raw data S. epidermidis #1: 6.25 µM
[12]; parallel 2 of three
  MIC raw data S. epidermidis #1: 6.25 µM
[12]; parallel 3 of three
  MIC raw data S. epidermidis #1: 6.25 µM
[13]; MH medium, 24 h at 35°C, OD595, >90% inhibition, value of Table 2, triplicates
  MIC E. coli #2: 1.56 µM
[13]; parallel 1 of three
  MIC raw data E. coli #2: 1.56 µM
[13]; parallel 2 of three
  MIC raw data E. coli #2: 1.56 µM
[13]; parallel 3 of three
  MIC raw data E. coli #2: 1.56 µM
[14]; ATCC 25922, 24 h
  MIC E. coli #1: 0.78 µM
[14]; parallel 1 of three
  MIC raw data E. coli #1: 0.78 µM
[14]; parallel 2 of three
  MIC raw data E. coli #1: 0.78 µM
[14]; parallel 3 of three
  MIC raw data E. coli #1: 0.78 µM
[15]; ATCC 35984, 24 h
  MIC S. epidermidis #2: 3.13 µM
[15]; parallel 1 of three
  MIC raw data S. epidermidis #2: 3.13 µM
[15]; parallel 2 of three
  MIC raw data S. epidermidis #2: 3.13 µM
[15]; parallel 3 of three
  MIC raw data S. epidermidis #2: 3.13 µM
